Data published in patent US12391674B2, “Heterocyclic compounds for the treatment of epilepsy” (OTSUKA PHARMACEUTICAL CO., LTD., priority 2018, dated 2025).

What was measured:
DBA/2 mice = assay: Audiogenic seizure model; type: in vivo; details: Mus musculus, DBA/2 mice, oral, auditory stimulation 1 hour after administration, read-out: Seizure suppression
In short: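 Male and female DBA/2 mice (3 weeks old, 8/group) dosed orally at 30 mg/kg in 5% gum arabic; 1 h later exposed to 12.6 kHz, 100-110 dB tone for 1 min or until tonic seizure. Maximum seizure score (0–4) recorded; suppression rate graded A (≥90%), B (70–<90%), C (50–<70%).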

ICR mice = assay: Rotarod test (motor coordination); type: in vivo, mouse; details: oral, rotarod 1 hour after administration
Experimental: This test is performed to evaluate the effect of the compound on the motor coordination. In this test example, the example compounds shown in Table 4 below were used as test compounds. Male ICR mice (Japan SLC, Inc., 5-6 weeks, 8 per group) were trained to remain on a fixed speed (15 rpm) rotating rod of rotarod apparatus (Muromachi Kikai Co., Ltd.) for 2 minutes. […] After 1 hour of oral administration, the mice were again placed on the rod accelerated from 4 rpm to 40 rpm over 5 minutes and the latency to fall off the rod was recorded for 200 seconds. The falling latency of the compound administration group was calculated as a relative value relative to the average value of the falling latency in the solvent administration group. Here, a coordination disorder of 25% or less was expressed as “A”, and a coordination disorder of more than 25% and 50% or less was expressed as “B”.

SMILES | inhibition in vivo at 30 mg/kg (DBA/2 mice) | further results
Cc1cc(Oc2cccc(OC(F)(F)F)c2)ccc1N1CCC(=O)NC1=O [Example 336] | 70 to 90% | Motor dysfunction (ICR mice; dose 30 mg/kg): A (a coordination disorder of 25% or less)
Fc1cccc(Oc2ncc(-c3ccc4nccn4c3)cn2)c1 [Example 122] |  | inhibition in vivo at 5 mg/kg (DBA/2 mice): > 90%; Motor dysfunction (ICR mice; dose 5 mg/kg): A (a coordination disorder of 25% or less)
Clc1cccc(Oc2ncc(-c3ccc4nccn4c3)cn2)c1 [Example 163, 6-(2-(3-Chlorophenoxy)Pyrimidin-5-Yl) Imidazo[1,2-a]Pyridine] |  | inhibition in vivo at 5 mg/kg (DBA/2 mice): > 90%; Motor dysfunction (ICR mice; dose 5 mg/kg): A (a coordination disorder of 25% or less)
O=C1CCN(c2ccc(Oc3cccc(F)c3)cc2)C(=O)N1 [Example 302, 1-(4-(3-Fluorophenoxy)Phenyl)Dihydropyrimidine-2,4 (1H,3H)-Dione] | > 90% | Motor dysfunction (ICR mice; dose 30 mg/kg): A (a coordination disorder of 25% or less)
O=C1CCN(c2ccc(Oc3cccc(C(F)(F)F)c3)cc2)C(=O)N1 [Example 307] | 70 to 90% | Motor dysfunction (ICR mice; dose 30 mg/kg): A (a coordination disorder of 25% or less)
Fc1ccc(Oc2ncc(-c3ccc4nccn4c3)cn2)cc1 [Example 120] |  | inhibition in vivo at 5 mg/kg (DBA/2 mice): > 90%; Motor dysfunction (ICR mice; dose 5 mg/kg): B (a coordination disorder of more than 25% and 50% or less)
Cc1ccc(-c2cnc(Oc3ccccc3)nc2)nn1 [Example 2] | > 90% | Motor dysfunction (ICR mice; dose 10 mg/kg): A (a coordination disorder of 25% or less)
O=C1NCCCN1c1cnc(Oc2ccccc2)nc1 [Example 220, 1-(2-Phenoxypyrimidin-5-Yl)Tetrahydropyrimidin-2 (1H)-One] | > 90% | Motor dysfunction (ICR mice; dose 30 mg/kg): A (a coordination disorder of 25% or less)
Cn1ncc2ccc(-c3cnc(Oc4ccccc4)nc3)nc21 [Example 275] | > 90% | Motor dysfunction (ICR mice; dose 30 mg/kg): A (a coordination disorder of 25% or less)
c1ccc(Oc2ncc(-c3ccn4cnnc4c3)cn2)cc1 [Example 211] | > 90% | Motor dysfunction (ICR mice; dose 30 mg/kg): B (a coordination disorder of more than 25% and 50% or less)
c1ccc(Oc2ncc(N3CCOCC3)cn2)cc1 [Example 224] | > 90% | Motor dysfunction (ICR mice; dose 30 mg/kg): A (a coordination disorder of 25% or less)
COc1ccc(-c2cnc(Oc3ccccc3)nc2)cn1 [Example 6, 5-(6-Methoxypyridin-3-Yl)-2-Phenoxypyrimidine] |  | inhibition in vivo at 5 mg/kg (DBA/2 mice): > 90%; Motor dysfunction (ICR mice; dose 5 mg/kg): A (a coordination disorder of 25% or less)
O=C1CCN(c2ccc(Cc3ccc(OC(F)(F)F)cc3)cc2)C(=O)N1 [Example 340] | 70 to 90% | Motor dysfunction (ICR mice; dose 30 mg/kg): A (a coordination disorder of 25% or less)
O=c1ccc(-c2cnc(Oc3c(F)cccc3F)nc2)n[nH]1 [Example 101] |  | inhibition in vivo at 3 mg/kg (DBA/2 mice): > 90%; Motor dysfunction (ICR mice; dose 3 mg/kg): A (a coordination disorder of 25% or less)
Nc1cncc(-c2cnc(Oc3ccccc3)nc2)c1 [Example 58] | > 90% | Motor dysfunction (ICR mice; dose 30 mg/kg): A (a coordination disorder of 25% or less)
COc1ccc(-c2cnc(Oc3ccccc3)nc2)nn1 [Example 1, 3-Methoxy-6-(2-Phenoxypyrimidin-5-Yl)Pyridazine] |  | inhibition in vivo at 5 mg/kg (DBA/2 mice): > 90%; Motor dysfunction (ICR mice; dose 5 mg/kg): A (a coordination disorder of 25% or less)
CC1CC(=O)NC(=O)N1c1ccc(Oc2ccccc2)cc1 (centres unmarked) [Example 328, 6-Methyl-1-(4-Phenoxyphenyl)Dihydropyrimidine-2,4 (1H,3H)-Dione] | > 90% | Motor dysfunction (ICR mice; dose 30 mg/kg): A (a coordination disorder of 25% or less)
O=C1Cc2cc(-c3cnc(Oc4ccccc4)nc3)ccc2N1 [Example 259] |  | inhibition in vivo at 5 mg/kg (DBA/2 mice): > 90%; Motor dysfunction (ICR mice; dose 5 mg/kg): A (a coordination disorder of 25% or less)
Nc1ccc(-c2cnc(Oc3ccccc3)nc2)cn1 [Example 36, 5-(2-Phenoxypyrimidin-5-Yl)Pyridin-2-Amine] |  | inhibition in vivo at 5 mg/kg (DBA/2 mice): > 90%; Motor dysfunction (ICR mice; dose 5 mg/kg): A (a coordination disorder of 25% or less)
O=C1CCN(c2ccc(Oc3cccc(OC(F)(F)F)c3)cc2)C(=O)N1 [Example 306] |  | Motor dysfunction (ICR mice; dose 30 mg/kg): A (a coordination disorder of 25% or less)
c1ccc(Oc2ncc(-c3cccc4nccn34)cn2)cc1 [Example 136] | > 90% | 

SMILES | inhibition in vivo at 30 mg/kg (DBA/2 mice) | further results
O=C1CCN(c2ccc(Oc3cc(F)cc(F)c3)cc2)C(=O)N1 [Example 344] | 50 to 70% | 
Nc1ccc(-c2cnc(Oc3cccc(F)c3)nc2)cn1 [Example 43] | > 90% | 
Fc1ccc(Oc2ncc(-c3ccc4cnc(C(F)(F)F)n4c3)cn2)cc1 [Example 288] | > 90% | 
Nc1ccc(-c2cnc(Oc3cccc(OC(F)(F)F)c3)nc2)cn1 [Example 48] | > 90% | 
Cc1nc2cc(-c3cnc(Oc4ccccc4F)nc3)ccn2c1C [Example 205] | > 90% | 
Cc1c(-c2cnc(Oc3ccc(F)cc3)nc2)ccc2nccn12 [Example 201] | > 90% | 
Nc1ccc(-c2cnc(Oc3ccc(F)c(F)c3)nc2)cn1 [Example 85] | > 90% | 
O=c1ccc(-c2cnc(Oc3ccc(F)cc3F)nc2)n[nH]1 [Example 109] | > 90% | 
Fc1cccc(Oc2ncc(-c3ccn4ccnc4c3)cn2)c1 [Example 131] | > 90% | 
Fc1ccccc1Oc1ncc(-c2ccn3cc(C(F)(F)F)nc3c2)cn1 [Example 217] | > 90% | 
COc1ccc(-c2cnc(Oc3cccc(F)c3F)nc2)nn1 [Example 68] | > 90% | 
O=C1Cc2ccc(-c3cnc(Oc4ccccc4F)nc3)cc2N1 [Example 269] | > 90% | 
O=C1CCN(c2ccc(Oc3ccc(F)cc3)cc2)C(=O)N1 [Example 310] | 50 to 70% | 
Cc1cc(Oc2ccccc2)ccc1N1CCC(=O)NC1=O [Example 324] | 50 to 70% | 
O=C1NCCCN1c1cnc(Oc2cccc(F)c2)nc1 [Example 221, 1-(2-(3-Fluorophenoxy)Pyrimidin-5-Yl)Tetrahydropyrimidin-2 (1H)-One] | > 90% | 
Nc1ccc(-c2cnc(Oc3ccccc3F)nc2)cn1 [Example 45] |  | inhibition in vivo at 5 mg/kg (DBA/2 mice): > 90%
O=c1[nH]cnc2ccc(-c3cnc(Oc4ccccc4)nc3)cc12 [Example 254] | > 90% | 
Nc1nccc2c(-c3cnc(Oc4ccccc4)nc3)cccc12 [Example 261] | > 90% | 
Nc1cc(-c2cnc(Oc3cccc(C(F)(F)F)c3)nc2)ccn1 [Example 81] | > 90% | 
O=C1CCC(c2cnc(Oc3cccc(F)c3)nc2)=NN1 [Example 94, 6-(2-(3-Fluorophenoxy)Pyrimidin-5-Yl)-4,5-Dihydropyridazin-3 (2H)-One] | > 90% | 
Cc1ncccc1-c1cnc(Oc2cccc(F)c2)nc1 [Example 47] | > 90% | 

SMILES | inhibition in vivo at 30 mg/kg (DBA/2 mice) | further results
O=C1Cc2c(cccc2-c2cnc(Oc3ccccc3)nc2)N1 [Example 272] | > 90% | 
COc1ccc(-c2cnc(Oc3cccc(C(F)(F)F)c3)nc2)nn1 [Example 12] |  | inhibition in vivo at 3 mg/kg (DBA/2 mice): > 90%
[O-][n+]1cccc(-c2cnc(Oc3cccc(F)c3)nc2)c1 [Example 61] | > 90% | 
c1ccc(Oc2ncc(-c3cnc4[nH]ncc4c3)cn2)cc1 [Example 133] | > 90% | 
Fc1cccc(Oc2ncc(-c3ccc4nccn4c3)cn2)c1F [Example 164] |  | inhibition in vivo at 5 mg/kg (DBA/2 mice): > 90%
O=C1CCc2ccc(-c3cnc(Oc4ccccc4)nc3)cc2N1 [Example 246] | > 90% | 
Fc1ccc(Oc2ncc(-c3ccc4nncn4n3)cn2)cc1 [Example 292] | > 90% | 
Cc1cc(Oc2cccc(F)c2)ccc1N1CCC(=O)NC1=O [Example 334] | 50 to 70% | 
O=C1COCCN1c1cnc(Oc2ccc(F)cc2)nc1 [Example 231] | > 90% | 
O=C1CCN(c2ccc(Oc3cccnc3)cc2)C(=O)N1 [Example 318] | 50 to 70% | 
Fc1cccc(Oc2ncc(-c3ccn4cc(C(F)(F)F)nc4c3)cn2)c1 [Example 218] | > 90% | 
Cc1cccc(Oc2ncc(-c3ccc(N)nc3)cn2)c1 [Example 88, 5-(2-(m-Tolyloxy)Pyrimidin-5-Yl)Pyridin-2-Amine] | > 90% | 
FC(F)(F)Oc1cccc(Oc2ncc(-c3ccc(C(F)(F)F)nn3)cn2)c1 [Example 67] | > 90% | 
Cc1nc2cc(-c3cnc(Oc4cccc(F)c4)nc3)ccn2c1C [Example 206] | > 90% | 
COc1ccc(-c2cnc(Oc3cc(F)ccc3F)nc2)nn1 [Example 63, 3-(2-(2,5-Difluorophenoxy)Pyrimidin-5-Yl)-6-Methoxypyridazine] | > 90% | 
O=C1COCCN1c1cnc(Oc2cccc(F)c2)nc1 [Example 230] | > 90% | 
c1ccc(Oc2ncc(-c3ccnc4[nH]ccc34)cn2)cc1 [Example 138] | > 90% | 
Fc1ccc(Oc2ncc(-c3ccc4nnc(C(F)(F)F)n4c3)cn2)cc1 [Example 282] | > 90% | 
Cc1cn2cc(-c3cnc(Oc4ccc(F)cc4)nc3)ccc2n1 [Example 180] | > 90% | 
